Like-named read-outs stand apart in the source and are kept apart here.
How the values were obtained:
[1] = cited from earlier work
protozoal enzymes = conditions: versus host cells; cited from earlier work

solubility in acidic or basic aqueous medium (acidic or basic aqueous medium, room temperature)	Compound	solubility in water (in words) [1]	solubility in 2-pyrrolidone (45° C.)	solubility in 2-pyrrolidone (room temperature)	solubility in NMP (NMP, room temperature)	solubility in water ([1]; room temperature)	selectivity for inhibiting folate synthesis in protozoal enzymes (protozoal enzymes)
at least 2.3 g/10 ml	Nc1ccc(S(=O)(=O)Nc2ncccn2)cc1 [sulfadiazine, 4-amino-N-2-pyrimidinylbenzenesulfonamide]						
	Nc1ccc(S(=O)(=O)Nc2ncccn2)cc1 [Sodium sulfadiazine]	soluble in water					
	COc1cc(Cc2cnc(N)nc2N)cc(OC)c1OC [Trimethoprim, 5-[(3,4,5-trimethoxyphenyl)methyl]-2,4-pyrimidinediamine]	not soluble in water	about 2.0 g/10 ml	about 0.4 g/10 ml	about 1.6 g/10 ml	about 0.04 g/100 ml	high selectivity
